What was measured:
[1] = molecular target: T1, TYK2-JH2 (aa 575-869, in-house) protein (Homo sapiens, UniProt P29597); experiment: TYK2-JH2 biochemical assay (HTRF probe displacement); assay type: binding; conditions: Biochemical assay; read-out: TYK2-JH2 IC50
T1 construct: TYK2-JH2 (aa 575-869, in-house) protein; made in house
How it was run: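 HTRF probe-displacement format: compound dilutions (10 points, 5-fold, from 500 uM in DMSO at 500×) were combined with 0.2 nM TYK2-JH2 protein for 0.5 h at room temperature in HEPES pH 7.5 buffer with MgCl2, BSA, DTT and Brij-35. Percent inhibition came from the 615/665 nm fluorescence ratio, fitted to a four-parameter logistic for IC50.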

pSTAT5/GM-CSF = pSTAT5/GM-CSF cellular assay (JAK2 selectivity); assay type: cell-based; conditions: for Selectivity fold (TYK2/JAK2): pSTAT5/GM-CSF IC50 over pSTAT4/IL-12 IC50
[2] = test system: JAK2, TYK2/p-STAT4 (Tyr693) activated by IL-12 in NK-92 cell line; experiment: IL-12-JAK2, TYK2/p-STAT4 (Tyr693) inhibition IC50 cellular assay; assay type: cell-based; conditions: for Selectivity fold (TYK2/JAK2): Cellular assay, pSTAT5/GM-CSF IC50 vs pSTAT4/IL-12 IC50; for IC50: NK92, Cellular assay, read-out: pSTAT4/IL-12 IC50
How it was run: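 p-STAT4 (Tyr693) in lysates was measured by AlphaLISA SureFire Ultra after a 30 min IL-12 challenge (40 ng/ml final) at 37° C. Overnight-starved, IL-2-free NK-92 cells had been pretreated 1 h with compound at 10000 to 0.61 nM (4-fold, 8 points). IC50 values came from four-parameter logistic fitting.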

T1 sequence (P29597 575-869): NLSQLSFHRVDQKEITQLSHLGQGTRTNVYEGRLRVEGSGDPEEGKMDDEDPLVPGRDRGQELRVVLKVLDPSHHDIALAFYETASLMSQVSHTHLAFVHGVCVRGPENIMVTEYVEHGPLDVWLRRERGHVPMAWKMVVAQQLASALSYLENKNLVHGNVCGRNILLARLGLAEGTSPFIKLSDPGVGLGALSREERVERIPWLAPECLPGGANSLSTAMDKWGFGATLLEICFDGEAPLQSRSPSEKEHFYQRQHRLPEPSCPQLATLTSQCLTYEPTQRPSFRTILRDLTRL

CC(=O)Nc1cc(Nc2cc(C3CC3)cc(S(C)(=O)=O)n2)c(-c2ccc(F)cn2)cn1 [Example F25, N-(4′-((4-cyclopropyl-6-(methylsulfonyl)pyridin-2-yl)amino)-5-fluoro-[2,3′-bipyridin]-6′-yl)acetamide]
IC50 [1]: 0.029 nM | IC50 (pSTAT5/GM-CSF): > 10000 nM | Selectivity fold (TYK2/JAK2) [2]: >22421 fold | IC50 [2]: 0.446 nM

COCCOc1cc(Nc2cc(NC(C)=O)ncc2-c2ccn(C(C)C)n2)nc(S(C)(=O)=O)c1 [Example M24, N-(5-(1-isopropyl-1H-pyrazol-3-yl)-4-((4-(2-methoxyethoxy)-6-(methylsulfonyl)pyridin-2-yl)amino)pyridin-2-yl)acetamide]
IC50 [1]: 0.032 nM | IC50 (pSTAT5/GM-CSF): 2180 nM | Selectivity fold (TYK2/JAK2) (pSTAT5/GM-CSF): 4466 fold | IC50 [2]: 0.487 nM

CC(=O)Nc1cc(Nc2cc(Cl)cc(S(C)(=O)=O)n2)c(-c2ccn(C)n2)cn1 [Example J40, N-(4-((4-chloro-6-(methylsulfonyl)pyridin-2-yl)amino)-5-(1-methyl-1H-pyrazol-3-yl)pyridin-2-yl)acetamide]
IC50 [1]: 0.029 nM | IC50 (pSTAT5/GM-CSF): > 10000 nM | Selectivity fold (TYK2/JAK2) (pSTAT5/GM-CSF): >30674 fold | IC50 [2]: 0.326 nM

COCc1ccc(-c2cnc(NC(C)=O)cc2Nc2cc(OC)cc(S(C)(=O)=O)n2)nc1 [Example E7, N-(4′-((4-methoxy-6-(methylsulfonyl)pyridin-2-yl)amino)-5-(methoxymethyl)-[2,3′-bipyridin]-6′-yl)acetamide]
IC50 [1]: 0.02 nM | IC50 (pSTAT5/GM-CSF): > 10000 nM | Selectivity fold (TYK2/JAK2) [2]: >22371 fold | IC50 [2]: 0.447 nM

CC(=O)Nc1cc(Nc2cccc(S(C)(=O)=O)n2)c(-c2c[nH]cn2)cn1 [Example A3, N-(5-(1H-imidazol-4-yl)-4-((6-(methylsulfonyl)pyridin-2-yl)amino)pyridin-2-yl)acetamide]
IC50 [1]: 0.035 nM | IC50 (pSTAT5/GM-CSF): > 10000 nM | Selectivity fold (TYK2/JAK2) [2]: >3952 fold | IC50 [2]: 2.53 nM

COCCOc1cc(Nc2cc(NC(C)=O)ncc2-c2ccn(C3CC3)n2)nc(S(C)(=O)=O)c1 [Example M4, N-(5-(1-cyclopropyl-1H-pyrazol-3-yl)-4-((4-(2-methoxyethoxy)-6-(methylsulfonyl)pyridin-2-yl)amino)pyridin-2-yl)acetamide]
IC50 [1]: 0.026 nM | IC50 (pSTAT5/GM-CSF): > 10000 nM | Selectivity fold (TYK2/JAK2) (pSTAT5/GM-CSF): >14684 fold | IC50 [2]: 0.681 nM

COCCOc1ccc(-c2cnc(NC(C)=O)cc2Nc2cc(OC(C)C)cc(S(C)(=O)=O)n2)nc1 [Example D6, N-(4′-((4-isopropoxy-6-(methylsulfonyl)pyridin-2-yl)amino)-5-(2-methoxyethoxy)-[2,3′-bipyridin]-6′-yl)acetamide]
IC50 [1]: 0.025 nM | IC50 (pSTAT5/GM-CSF): > 10000 nM | Selectivity fold (TYK2/JAK2) [2]: >16863 fold | IC50 [2]: 0.593 nM

COCCOc1ccc(-c2cnc(NC(C)=O)cc2Nc2cc(OC[C@@H](C)OC)cc(S(C)(=O)=O)n2)nc1 [Example D7, (R)-N-(5-(2-methoxyethoxy)-4′-((4-(2-methoxypropoxy)-6-(methylsulfonyl)pyridin-2-yl)amino)-[2,3′-bipyridin]-6′-yl)acetamide]
IC50 [1]: 0.031 nM | IC50 (pSTAT5/GM-CSF): > 10000 nM | Selectivity fold (TYK2/JAK2) [2]: >12422 fold | IC50 [2]: 0.805 nM

CC(=O)Nc1cc(Nc2cccc(S(C)(=O)=O)c2)c(-c2ccn(C)n2)cn1 [Example J6, N-(5-(1-methyl-1H-pyrazol-3-yl)-4-((3-(methylsulfonyl)phenyl)amino)pyridin-2-yl)acetamide]
IC50 [1]: 0.033 nM | IC50 (pSTAT5/GM-CSF): > 10000 nM | Selectivity fold (TYK2/JAK2) (pSTAT5/GM-CSF): >1259 fold | IC50 [2]: 7.94 nM

CCn1ccc(-c2cnc(NC(C)=O)cc2Nc2cc(COC)cc(S(C)(=O)=O)n2)n1 [Example M7, N-(5-(1-ethyl-1H-pyrazol-3-yl)-4-((4-(methoxymethyl)-6-(methylsulfonyl)pyridin-2-yl)amino)pyridin-2-yl)acetamide]
IC50 [1]: 0.026 nM | IC50 (pSTAT5/GM-CSF): > 10000 nM | Selectivity fold (TYK2/JAK2) (pSTAT5/GM-CSF): >18621 fold | IC50 [2]: 0.537 nM

COCCOc1cc(Nc2cc(NC(C)=O)ncc2-c2ccn(C)n2)nc(S(C)(=O)=O)c1 [Example J12, N-(4-((4-(2-methoxyethoxy)-6-(methylsulfonyl)pyridin-2-yl)amino)-5-(1-methyl-1H-pyrazol-3-yl)pyridin-2-yl)acetamide]
IC50 [1]: 0.017 nM | IC50 (pSTAT5/GM-CSF): > 10000 nM | Selectivity fold (TYK2/JAK2) (pSTAT5/GM-CSF): >11806 fold | IC50 [2]: 0.847 nM

CC(=O)Nc1cc(Nc2cc(C(F)(F)F)cc(S(C)(=O)=O)c2)c(-c2ccn(C(C)C)n2)cn1 [Example M25, N-(5-(1-isopropyl-1H-pyrazol-3-yl)-4-((3-(methylsulfonyl)-5-(trifluoromethyl)phenyl)amino)pyridin-2-yl)acetamide]
IC50 [1]: 0.096 nM | IC50 (pSTAT5/GM-CSF): > 10000 nM | Selectivity fold (TYK2/JAK2) (pSTAT5/GM-CSF): >659 fold | IC50 [2]: 15.2 nM

CC(=O)Nc1cc(Nc2cc(OC[C@@H](C)O)cc(S(C)(=O)=O)n2)c(-c2ccn(C)n2)cn1 [Example J47, (R)-N-(4-((4-(2-hydroxypropoxy)-6-(methylsulfonyl)pyridin-2-yl)amino)-5-(1-methyl-1H-pyrazol-3-yl)pyridin-2-yl)acetamide]
IC50 [1]: 0.037 nM | IC50 (pSTAT5/GM-CSF): > 10000 nM | Selectivity fold (TYK2/JAK2) (pSTAT5/GM-CSF): >2114 fold | IC50 [2]: 4.73 nM

CC(=O)Nc1cc(Nc2cc(OC3CCC3)cc(S(C)(=O)=O)n2)c(-c2ccc(C(C)(C)O)cn2)cn1 [Example H31, N-(4′-((4-cyclobutoxy-6-(methylsulfonyl)pyridin-2-yl)amino)-5-(2-hydroxypropan-2-yl)-[2,3′-bipyridin]-6′-yl)acetamide]
IC50 [1]: 0.023 nM | IC50 (pSTAT5/GM-CSF): > 10000 nM | Selectivity fold (TYK2/JAK2) [2]: >10695 fold | IC50 [2]: 0.935 nM

CC(=O)Nc1cc(Nc2cc(O[C@H]3C[C@H](O)C3)cc(S(C)(=O)=O)n2)c(-c2ccn(C)n2)cn1 [Example J16, N-(4-((4-((trans)-3-hydroxycyclobutoxy)-6-(methylsulfonyl)pyridin-2-yl)amino)-5-(1-methyl-1H-pyrazol-3-yl)pyridin-2-yl)acetamde]
IC50 [1]: 0.015 nM | IC50 (pSTAT5/GM-CSF): > 10000 nM | Selectivity fold (TYK2/JAK2) (pSTAT5/GM-CSF): >3968 fold | IC50 [2]: 2.52 nM

CC(=O)Nc1cc(Nc2cccc(S(C)(=O)=O)n2)c(-c2ccn(C3CC3)n2)cn1 [Example M1, N-(5-(1-cyclopropyl-1H-pyrazol-3-yl)-4-((6-(methylsulfonyl)pyridin-2-yl)amino)pyridin-2-yl)acetamide]
IC50 [1]: 0.055 nM | IC50 (pSTAT5/GM-CSF): 2010 nM | Selectivity fold (TYK2/JAK2) (pSTAT5/GM-CSF): 11551 fold | IC50 [2]: 0.174 nM

COCCOc1ccc(-c2cnc(NC(C)=O)cc2Nc2cc(C)cc(S(C)(=O)=O)n2)nc1 [Example D4, N-(5-(2-methoxyethoxy)-4′-((4-methyl-6-(methylsulfonyl)pyridin-2-yl)amino)-[2,3′-bipyridin]-6′-yl)acetamide]
IC50 [1]: 0.044 nM | IC50 (pSTAT5/GM-CSF): > 10000 nM | Selectivity fold (TYK2/JAK2) [2]: >38167 fold | IC50 [2]: 0.262 nM

COc1cc(S(C)(=O)=O)nc(Nc2cc(NC(C)=O)ncc2-c2ccc(F)cn2)c1OC [Example F23, N-(4′-((3,4-dimethoxy-6-(methylsulfonyl)pyridin-2-yl)amino)-5-fluoro-[2,3′-bipyridin]-6′-yl)acetamide]
IC50 [1]: 0.02 nM | IC50 (pSTAT5/GM-CSF): > 10000 nM | Selectivity fold (TYK2/JAK2) [2]: >9345 fold | IC50 [2]: 1.07 nM

CC(=O)Nc1cc(Nc2cc(N3CCOCC3)cc(S(C)(=O)=O)n2)c(-c2ccc3c(n2)OCC(C)(C)O3)cn1 [Example Q22, N-(5-(2,2-dimethyl-2,3-dihydro-[1,4]dioxino[2,3-b]pyridin-6-yl)-4-((6-(methylsulfonyl)-4-morpholinopyridin-2-yl)amino)pyridin-2-yl)acetamide]
IC50 [1]: 0.025 nM | IC50 (pSTAT5/GM-CSF): 3960 nM | Selectivity fold (TYK2/JAK2) (pSTAT5/GM-CSF): 6779 fold | IC50 [2]: 0.584 nM

CC(=O)Nc1cc(Nc2cc(C3COCCO3)cc(S(C)(=O)=O)n2)c(-c2ccc3c(n2)OCC(C)(C)O3)cn1 (racemic) [Example Q50, (R/S)—N-(4-((4-(1,4-dioxan-2-yl)-6-(methylsulfonyl)pyridin-2-yl)amino)-5-(2,2-dimethyl-2,3-dihydro-[1,4]dioxino[2,3-b]pyridin-6-yl)pyridin-2-yl)acetamide]
IC50 [1]: 0.019 nM | IC50 (pSTAT5/GM-CSF): 2020 nM | Selectivity fold (TYK2/JAK2) (pSTAT5/GM-CSF): 3231 fold | IC50 [2]: 0.626 nM

CC(=O)Nc1cc(Nc2cc(OC3CC3)cc(S(C)(=O)=O)c2)c(-c2ccn(C)n2)cn1 [Example J36, N-(4-((3-cyclopropoxy-5-(methylsulfonyl)phenyl)amino)-5-(1-methyl-1H-pyrazol-3-yl)pyridin-2-yl)acetamide]
IC50 [1]: 0.043 nM | IC50 (pSTAT5/GM-CSF): > 10000 nM | Selectivity fold (TYK2/JAK2) (pSTAT5/GM-CSF): >1980 fold | IC50 [2]: 5.05 nM

COCCOc1cc(Nc2cc(NC(C)=O)ncc2-c2cc(C)n(C)n2)nc(S(C)(=O)=O)c1 [Example N5, N-(5-(1,5-dimethyl-1H-pyrazol-3-yl)-4-((4-(2-methoxyethoxy)-6-(methylsulfonyl)pyridin-2-yl)amino)pyridin-2-yl)acetamide]
IC50 [1]: 0.039 nM | IC50 (pSTAT5/GM-CSF): > 10000 nM | Selectivity fold (TYK2/JAK2) (pSTAT5/GM-CSF): >47169 fold | IC50 [2]: 0.212 nM

— patent publication US20240043435A1, “TYK-2 INHIBITOR” (BEIGENE, LTD., priority 2020, published 2024)
